According to patent publication US20250314636A1, “METHOD OF PREPARING AND EXPANDING A POPULATION OF IMMUNE CELLS FOR CANCER THERAPY, POTENCY ASSAY FOR TUMOR RECOGNITION, BIOLOGICAL VACCINE PREPARATION AND EPITOPETARGET FOR ANTIBODIES” (FUNDAÇÃO D. ANNA DE SOMMER CHAMPALIMAUD E DR. CARLOS MONTEZ …, priority 2022, published 2025):

Assays:
[1] = system: TIL; test: Peptide recognition assay in TIL (IFN-γ ELISA / IL-17 in supernatant, 7 days); assay type: cell-based, human; parameters: IFN-γ production, TIL: unit not given here; conditions: for Pancreatic TIL D1599 IFN-y / Pancreatic TILD1599 IL 17: Pancreatic TIL D1599; for IFN-γ production, TIL: 10e4 TIL/well co-cultured with the peptide for 7 days, supernatant tested
Protocol: (§1) Peptides from tumor-associated antigens (TAAs), listed in Table 5 were placed at 1 ug/well in duplicates using anti-CD3 at 30 ng/mL as well as PHA at 5 μg/mL as positive controls.
(§2) The differences in TIL versus PBMCs can also be defined by peptide reactivity. 10e^4 TIL or 10e^4 PBMC/well were co-cultured with the peptides listed in Table 11 below for 7 days and the supernatants were tested for IFN-γ production.

[2] = system: PBMCs; test: Peptide recognition assay in PBMCs (IFN-γ in supernatant, 7 days); assay type: cell-based, human; conditions: 10e4 PBMC/well co-cultured with the peptide for 7 days, supernatant tested
Protocol: as §1, §2

Row | Sequence | Pancreatic TIL D1599 IFN-y [1] | Pancreatic TILD1599 IL 17 [1] | IFN-γ production, TIL [1] | IFN-γ production, PBMCs [2]
1 | LVVVGAGSVGKSALT [KRAS_G13S] | 24 pg/mL | 0 pg/mL | – | –
2 | LVVVGAGVVGKSALT | – | – | 0 | 0
3 | LVVVGAGVVGKSALT [KRAS_G13V] | 10 pg/mL | 0 pg/mL | – | –
4 | LVVVGAVGVGKSALT | – | – | 0 | 0
5 | LVVVGAVGVGKSALT [KRAS fitted for HLA-DQB1*06:02] | 0 pg/mL | 0 pg/mL | – | –
6 | MALPTARPLLGSCGT | – | – | 0 | 0
7 | MALPTARPLLGSCGT [Mesothelin MPF-1] | 0 pg/mL | 0 pg/mL | – | –
8 | MQEALSGTPCLLGPG | – | – | 0 | 0
9 | MQEALSGTPCLLGPG [Mesothelin GPI P40 (601-605)] | 0 pg/mL | 120 pg/mL | – | –
10 | PMVLVGNNCDLPSRT | – | – | 0 | 0
11 | PMVLVGNNCDLPSRT [KRAS_K117N] | 32 pg/mL | 0 pg/mL | – | –
12 | PVTSLSSASTGDTTP | – | – | 0 | 0
13 | PVTSLSSASTGDTTP [MUC4-P4 [WT]] | 17 pg/mL | 0 pg/mL | – | –
14 | PVTSLSSVSTGDTTP | – | – | 0 | 0
15 | PVTSPSSASTGHAIP | – | – | 0 | 0
16 | PVTSPSSASTGHAIP [MUC4-P10 [WT]] | 5 pg/mL | 0 pg/mL | – | –
17 | PVTSPSSESTGHAIP | – | – | 0 | 0
18 | PVTSPSSESTGHAIP [MUC4-P9 [Mut]] | 0 pg/mL | 0 pg/mL | – | –
19 | PVTSTSSASTGHATP | – | – | 0 | 0
20 | PVTSTSSASTGHATP [MUC4-P8 [WT]] | 0 pg/mL | 2 pg/mL | – | –
21 | PVTSTSSVSTGHATP | – | – | 0 | 0
22 | PVTSTSSVSTGHATP [MUC4-P7 [Mut][WT]] | 0 pg/mL | 0 pg/mL | – | –

Row | Sequence | Pancreatic TIL D1599 IFN-y [1] | Pancreatic TILD1599 IL 17 [1] | IFN-γ production, TIL [1] | IFN-γ production, PBMCs [2]
23 | SVSTMDALRGLLPVL | – | – | 0 | 0
24 | SVSTMDALRGLLPVL [Mesothelin MPF-17] | 0 pg/mL | 0 pg/mL | – | –
25 | TLGEFLKLDRERAKN | – | – | 0 | 0
26 | TLGEFLKLDRERAKN [Survivin (97-111)] | 0 pg/mL | 0 pg/mL | – | –
27 | TPLPVTDASSASTGH [MUC4-P1 [Mut][WT]] | 0 pg/mL | 3 pg/mL | – | –
28 | TPLPVTDNSSASTGD [MUC4-P11 [Mut]] | 19 pg/mL | 0 pg/mL | – | –
29 | TPLPVTDTSSASTGD [MUC4-P12 [WT]] | 34 pg/mL | 0 pg/mL | – | –
30 | TPLPVTDTSSASTGH [MUC4-P2 [WT]] | 0 pg/mL | 1 pg/mL | – | –
31 | TTPLPVTIPSSASSG [MUC4-P5 [Mut][WT]] | 12 pg/mL | 0 pg/mL | – | –
32 | TTPLPVTSPSSASSG [MUC4-P6 [WT]] | 0 pg/mL | 0 pg/mL | – | –
33 | VTDASSASTGH [MUC4-P2_fitted for HLA-A*01:01] | 0 pg/mL | 14 pg/mL | – | –
34 | VTDTSSASTGH [MUC4-P1_fitted for HLA-A*01:01] | 0 pg/mL | 24 pg/mL | – | –
35 | WAVRPQDLDTCDPRQ [Mesothelin GPI P13] | 0 pg/mL | 0 pg/mL | – | –
36 | YEQLDVLKHKLDELY [Mesothelin GPI P5] | 0 pg/mL | 0 pg/mL | – | –
37 | YKLVVVGAAGVGKSALT [Kras_P7 (G12A)] | 0 pg/mL | 65 pg/mL | – | –
38 | YKLVVVGACGVGKSALT [Kras_P6 (G12C)] | 0 pg/mL | 0 pg/mL | – | –
39 | YKLVVVGADGVGKSALT [Kras_P3 (G12D)] | 0 pg/mL | 0 pg/mL | – | –
40 | YKLVVVGAGGVGKSALT [Kras_P1 (G12 WT)] | 0 pg/mL | 37 pg/mL | – | –
41 | YKLVVVGARGVGKSALT [Kras_P4 (G12R)] | 0 pg/mL | 0 pg/mL | – | –
42 | YKLVVVGASGVGKSALT [Kras_P5 (G12S)] | 14 pg/mL | 0 pg/mL | – | –
43 | YKLVVVGAVGVGKSALT [Kras_P2 (G12V)] | 0 pg/mL | 2 pg/mL | – | –
